Structures are written as SMILES.

In this test the target is Adrenergic receptor alpha (Homo sapiens) (UniProt P35348+P08913+P18825+P25100+P35368+P18089). As to the kind of experiment: Blocking activity towards Alpha adrenergic receptor of rabbit aortic tissue preparation was determined. The note with it: Oryctolagus cuniculus; target entry is the homologue from another species.
In turn, `C[C@@H]1CN=C(Cc2cccc3ccccc23)N1` had a -Log KB of 5.6.
The compound `C[C@H]1CN=C(Cc2cccc3ccccc23)N1` returned a -Log KB of 5.76.
To `C[C@@H]1CN=C(Nc2c(Cl)cccc2Cl)N1` belongs 5.08.
In the case of `c1ccc(C[C@H]2CN=C(Cc3cccc4ccccc34)N2)cc1` it was 6.57; in that of `c1ccc(CC2NC[C@@H](Cc3ccccc3)N2)cc1` (stereo partly drawn), 4.98; in that of `C[C@H]1CN=C(Nc2c(Cl)cccc2Cl)N1`, 5.27.
In the case of `c1ccc(C[C@@H]2CN=C(Cc3cccc4ccccc34)N2)cc1` it was 6.34.
`c1ccc(CC2NC[C@H](Cc3ccccc3)N2)cc1` (stereo partly drawn) displayed a -Log KB of 5.

Values taken from ChEMBL document CHEMBL1121613.
